Where two headings read alike, the source gives them in different places.
Key:
[1] = test system: hiPSC-derived neurons co-cultured with human primary astrocytes in 3D; test: Ca2+ transient oscillation assay (FDSS), 3D spheroids; format: cell-based; details: for Area under the curve - 3D Mean / Peak Number—3D Mean / Peak width - 3D Mean / Peak-to-peak interval - 3D Mean: 60 min
Excerpt: (§1) In this study, we used cryopreserved excitatory neurons that were differentiated from human induced pluripotent stem cells (hiPSCs; Cat #: EX-SeV-CW50065) (Elixirgen Scientific, Inc., Baltimore, MD, USA). The hiPSCs used, namely, CW50065 were derived from a healthy person and distributed by the California Institute of Regenerative Medicine Human Induced Pluripotent Stem Cell Repository. Human iPSC-derived excitatory neurons were differentiated from CW50065 using a proprietary cocktail of differentiation-inducing factors called Quick-Neuron™ EX-SeV (Batch number: EX-SeV-CW50065-L; Elixirgen Scientific, Inc.), cryopreserved 3 days after differentiation induction and distributed. Human iPSC-derived excitatory neurons were recovered from cryopreservation and maintained essentially as instructed by the manufacturer.
(§2) Cryopreserved human primary astrocytes (#N7805100, Thermo Fisher Scientific, Waltham, MA, USA) were recovered as instructed by the manufacturer and seeded in a 10 cm dish at the density of 2,000,000 cells. The culture was maintained using the Human Astrocytes Kit (#N7805200, Thermo Fisher Scientific) for 12 days. Half of the culture medium was replaced with fresh medium every 2–3 days during the culture period. These astrocytes were harvested using StemPro™ Accutase™ Cell Dissociation Reagent (#A1110501, Thermo Fisher Scientific) when they reached confluency. These cells were cryopreserved in STEM-CELLBANKER® GMP grade (ZENOGEN PHARMA, Kohriyama, Fukushima Japan) at the density of 2,000,000 cells per vial as working stocks for co-culture with neurons in 2D and 3D conditions described below. After a working stock was recovered, astrocytes were directly mixed with hiPSC-derived neurons for plating without further expansion.
We used U-shaped-bottom 96-well plates (#174925, Thermo Fisher Scientific) without any prior coating to make a spheroid in each well. Neurons and astrocytes were seeded and maintained as described for 2D cultures, except for the following modifications. First, neurons and astrocytes were seeded in each well of the 96-well plates at the density of 8000 hiPSC neurons with 8000 human primary astrocytes (8000)/well (ratio 1:1). Second, when the differentiation of excitatory neurons was completed one week after seeding, cells were fed with BrainPhys^TM Neuronal Medium (#05793, […] Technologies, Vancouver, BC, Canada) supplemented with 2% SM1 Neuronal Supplement, 1% N2 Supplement-A, and 10% Neuron culture medium for 5 weeks.
Cells maintained as spheroids (3D) in the U-shaped-bottom 96-well plates were transferred into 384-well spheroid plates (#4516, Merck, Corning, NY, USA) with 25 µL of the culture medium. A Ca^2+-indicating dye solution including […] was prepared using the EarlyTox™ Cardiotoxicity Kit (#R8211, Molecular Devices, LLC, San Jose, CA, USA) according to the manufacturer. Then, the same volume of the dye solution was dispensed into each well.
(§3) Prior to the fluorescence measurements, all wells to be measured were treated with 0.04% dimethyl sulfoxide (DMSO) to stabilize the oscillation signal. The first recording started 10 min after the addition of DMSO for each plate for 20 min. The effects of the test compound were recorded again starting 60 min after the administration of compounds, for 20 min.
Twenty-five compounds (Table 1) were first dissolved in either DMSO (most compounds) or distilled water depending on the compound, and further diluted with PBS to produce stock solutions concentrated 10-fold. Then, 5 μL of each compound solution was injected into each well using an automatic pipetting robot (#4505, ASSIST PLUS pipetting robot, Integra Biosciences Corp., Hudson, NH, USA), so that the final concentration of each compound was 1-fold nominal in the well.

[2] = test system: hiPSC-derived neurons co-cultured with human primary astrocytes in 2D; test: Ca2+ transient oscillation assay (FDSS), 2D co-culture; format: cell-based; details: for activation at 0.37 µM / activation at 1.11 µM / activation at 3.33 µM / activation at 10 µM: Homo sapiens, 1 h
Excerpt: as §1, §2
Live neurons (hiPSC neurons) and human primary astrocytes were recovered from cryopreservation as described above and seeded in each well of 384-well plates at the density of 10,000 cells (HiPSC-cortical neurons) and human primary astrocytes at 2500 cells (ratio 4:1). These co-cultures were maintained under the medium conditions recommended by the manufacturer, namely Medium N(G2P), to complete the differentiation of excitatory neurons for the first week. […] Half of the culture medium was replaced with fresh medium every 3–4 days during the culture period.
After the incubation, the culture medium containing Cal-520 was replaced with 50 μL of HBSS supplemented with 0.1 mM MgCl2, 2 mM CaCl2, 10 mM HEPES, and 10 mM glucose and incubated at 37 ℃ for 15 min.
as §3
Twenty-five compounds (Table 1) were first dissolved in either DMSO (most compounds) or distilled water depending on the compound, and further diluted with PBS to produce stock solutions concentrated 10-fold. […] The final concentration of DMSO was adjusted to 0.1%. Changes in the fluorescence intensity (FI) produced by Ca^2+ flux were measured at 37 °C for all wells of a 384-well plate simultaneously using the FDSS/µCell system (#C13299, Hamamatsu Photonics, Hamamatsu, Shizuoka, Japan). The excitation and the emission wavelengths were 470 nm and 540 nm, respectively. The recording duration was 20 min with a sampling frequency of 2 Hz for cells cultured under 2D conditions and 10 Hz for cells cultured under 3D conditions.

[3] = symbol, based on % changes of baseline value in the peak number, concentration in parentheses in same cell
[4] = read-out: Area under the curve - 2D Mean
[5] = read-out: Peak amplitude - 2D Mean
[6] = read-out: Peak-to-peak interval - 2D Mean

Compound: CN1CCc2cc3c(cc2[C@H]1[C@@H]1OC(=O)c2c1ccc1c2OCO1)OCO3 [Bicuculline]
- Area under the curve - 3D Mean ([1]; 0.37 µM): 105.2 % change from baseline
- Peak Number—3D Mean ([1]; 0.37 µM): −14.9 % change from baseline
- Peak width - 3D Mean ([1]; 0.37 µM): −0.3 % change from baseline
- Peak-to-peak interval - 3D Mean ([1]; 0.37 µM): 7.6 % change from baseline
- Area under the curve - 3D Mean ([1]; 1.11 µM): 108.3 % change from baseline
- Peak Number—3D Mean ([1]; 1.11 µM): −13.0 % change from baseline
- Peak width - 3D Mean ([1]; 1.11 µM): 5.7 % change from baseline
- Peak-to-peak interval - 3D Mean ([1]; 1.11 µM): 20.3 % change from baseline
- Area under the curve - 3D Mean ([1]; 3.33 µM): 107.4 % change from baseline
- Peak Number—3D Mean ([1]; 3.33 µM): 5.8 % change from baseline
- Peak width - 3D Mean ([1]; 3.33 µM): 2.7 % change from baseline
- Peak-to-peak interval - 3D Mean ([1]; 3.33 µM): 12.1 % change from baseline
- Area under the curve - 3D Mean ([1]; 10 µM): 115.2 % change from baseline
- Peak Number—3D Mean ([1]; 10 µM): −5.8 % change from baseline
- Peak width - 3D Mean ([1]; 10 µM): 8.5 % change from baseline
- Peak-to-peak interval - 3D Mean ([1]; 10 µM): 9.4 % change from baseline
- effect on peak number of oscillations, in words ([1]; 3D-cultured): did not significantly change the peak number
- Ca²⁺ Transient Peak Number (3D) [1, 3]: ±
- effect on peak number / Ca2+ neuronal oscillations, in words ([2]; 2D format): significantly reduced peak number
- activation at 0.37 µM [2, 4]: 15.8%
- activation at 1.11 µM [2, 4]: 39.6%
- activation at 3.33 µM [2, 4]: 1.6%
- activation at 10 µM [2, 4]: 22.8%
- activation at 0.37 µM ([2]; read-out: Peak Number—2D Mean): -29.4%
- activation at 1.11 µM ([2]; read-out: Peak Number—2D Mean): -3.5%
- activation at 3.33 µM ([2]; read-out: Peak Number—2D Mean): 9.9%
- activation at 10 µM ([2]; read-out: Peak Number—2D Mean): 5.8%
- activation at 0.37 µM [2, 5]: -4.1%
- activation at 1.11 µM [2, 5]: 9.3%
- activation at 3.33 µM [2, 5]: -14.1%
- activation at 10 µM [2, 5]: 9.8%
- activation at 0.37 µM ([2]; read-out: Peak width - 2D Mean): 16.1%
- activation at 1.11 µM ([2]; read-out: Peak width - 2D Mean): 33%
- activation at 3.33 µM ([2]; read-out: Peak width - 2D Mean): 3.7%
- activation at 10 µM ([2]; read-out: Peak width - 2D Mean): 11.5%
- activation at 0.37 µM [2, 6]: -17.2%
- activation at 1.11 µM [2, 6]: 8.2%
- activation at 3.33 µM [2, 6]: -26.1%
- activation at 10 µM [2, 6]: -13.2%
- Ca²⁺ Transient Peak Number (2D) [2, 3]: ±
